From US10183908B2, “Compositions for the treatment of kidney and/or liver disease” (VECTUS BIOSYSTEMS LIMITED, priority 2015, dated 2019)

Assays:
[1] = test system: A10 embryonic vascular smooth muscle cells; experiment: xCELLigence cell impedance in A10 vascular smooth muscle cells; assay type: cell-based; conditions: test compounds at 62.5, 125 or 250 μM; FIG. 8; negative response = direct vasodilator
Excerpt: The xCELLigence SP system (Roche) was used to measure changes in cellular impedance (cell index) following the treatment of A10 embryonic vascular smooth muscle cells (ATCC, CRL-1476) with test compound. In this in vitro cell based experimental system a negative impedance profile correlates with blood pressure reduction in rats—a decrease in impedance is associated with vasodilatation and an increase in impedance is associated with vasoconstriction (Stallaert W, Dorn J F, van der Westhuizen E, Audet M & Bouvier M. Impedance responses reveal β-adrenergic signaling […] and allow classification of ligands with distinct signalling profiles PLoS ONE 2012; 7(1):e29420, doi:10.1371/journal.pone.0029420).
(§1) Briefly, 50 μl of cell culture medium (DMEM low glucose supplemented with 10% fetal bovine serum at 37° C.) was added to each well of an E-Plate 96 (Roche), and the background impedance in each well was measured. 50 μl of A-10 cell suspension (10,000 cells/well) was then added to the appropriate wells of the E-Plate 96. Cell index was monitored for each well of the E-Plate 96 in RTCA SP Station within the cell culture incubator. After overnight incubation for 16-20 hours at 5% CO2 and 95% humidity, 100 μl of test compound solution (test compounds were prepared in DMSO and diluted with cell culture medium to a final DMSO concentration of 0.25%) was added to the appropriate wells of the E-Plate 96 and cell index values were measured immediately following compound treatment every 20 seconds for 3 hours. Cell index value is baseline-corrected by subtracting the cell index of vehicle-treated cells and normalized by dividing by the cell index at the time point immediately before compound addition. Baseline normalized cell index as a function of time is plotted using Roche RTCA software.
Compounds may achieve reductions in blood pressure by interaction with vascular smooth muscle cells causing these cells to relax resulting in vasodilatation and a reduction in blood pressure. These are termed direct vasodilators.

[2] = test system: Rat (NRK-52E) renal proximal tubule cells; experiment: Rescue of renal proximal tubule cells from cisplatin cytotoxicity (WST-8/CCK-8); assay type: cell-based; conditions: test compound 30 μM; cisplatin 5 μg/ml; 24 or 48 hours; FIG. 10
Experimental: Rat (NRK-52E) renal proximal tubule cells grown in DMEM+10% FBS+1% NEAA+2 mM glutamine were placed in 96 well plates at 10,000 cells/well and incubated at 37° C. with 5% CO2 overnight. Test compounds at a concentration of 30 μM were incubated with human or rat renal proximal tubule cells for 2 hours at 37° C. and 5% CO2. Cis-diamminedichloroplatinum[…] (cisplatin) was then added at […] and each cell population was then incubated for 24 or 48 hours at 37° C. with 5% CO2. Test compounds were maintained at their original concentrations. To assay the cytotoxic effects of cisplatin on the rat renal proximal tubule cells a highly water-soluble tetrazolium salt, WST-8, which is reduced by dehydrogenases in cells to produce formazan, a water-soluble, yellow-coloured indicator dye was used following the manufacturer's instructions (specifically the Cell Count Kit-8 (CCK-8) assay from Sigma). Plate absorbance of the WST-8 (CCK-8) reagent was then measured at 450 nm using a Thermo Scientific Multiskan EX plate reader.

SHR [3] = experiment: Kidney fibrosis in SHR (Masson's trichrome); assay type: in vivo, rat; conditions: SHR on 2.2% salt diet; 500 pmol/kg/min; 4 weeks; FIG. 12, *p<0.05
Excerpt: (§2) Fourteen week old SHR (on a 2.2% salt diet; Glen Forrest Stockfeeders) were randomly assigned to zero time control (14 week old rats), test compound treatment drinking solution (500 pmol/kg/min in deionised distilled water) or control drinking solution (5% ethanol in deionised distilled water). The rats assigned to zero time control group (14 week old rats) were anaesthetised and had their kidneys and liver harvested while rats assigned to control and test compound treatment were weighed twice weekly and had their drinking solution intake monitored to allow adjustment of the test compound concentration in the drinking solution to maintain a constant dose over the 4-week study period. Blood pressure was measured twice weekly by tail cuff plethysmography (PowerLab, ADInstruments, Castle Hill, NSW, Australia). After 4 weeks rats were anaesthetised (18 week old rats), and their kidneys and liver harvested. To quantitate tissue fibrosis and/or fat content, tissue slices ≤3 mm thick were fixed in 10% buffered formalin for 24 hours, processed and embedded in paraffin. Three micron transverse sections were stained using Masson's trichrome stain. A minimum of 20 random fields at magnification ×20 from transverse sections (5 at each of 2 levels) were digitized and the degree of fibrosis and fat content determined as a percent of field area of each digitized image using Image-Pro Plus V.7 (Media Cybernetics, Bethesda, Md., USA) then averaged to determine the level of fibrosis and/or fat content for each rat.

SHR [4] = experiment: Hepatic fibrosis in SHR (Masson's trichrome); assay type: in vivo, rat; conditions: for Fibrosis in the liver compared to 18 week controls: SHR, 500 pmol/kg/min, 4 weeks, FIG. 13, *p<0.05, **p<0.025, ***p<0.01
Excerpt: as §2

[5] = test system: bovine aortic endothelial cells; experiment: xCELLigence cell impedance in bovine aortic endothelial cells; assay type: cell-based; conditions: test compounds at 62.5, 125 or 250 μM; FIG. 9; negative response = indirect vasodilator
Experimental: as §1
The xCELLigence SP system was also used to measure changes in cellular impedance following the treatment of bovine aortic endothelial cells (European Collection of Cell Cultures) with test compound. The method employed is the same for the A10 embryonic vascular smooth muscle cells described above but with the cell culture medium supplemented with 15% fetal bovine serum instead of 10%.
Compounds may interact with vascular endothelial cells causing the release of substances such as nitric oxide and endothelium-derived hyperpolarising factor, which in turn act on the vascular smooth muscle cells causing vasodilatation and lowering blood pressure. Such compounds are termed indirect vasodilators.

SMILES	impedance response for A10 vascular smooth muscle cells [1]	Cisplatin induced cell death in renal proximal tubular cells [2]	Fibrosis in the kidney compared to 18 week controls (SHR [3])	Tissue architecture of portal tracts in Masson's tri-chrome stained liver sections (SHR [4]; SHR treated rats vs control, FIG. 14)	Fibrosis in the liver compared to 18 week controls (SHR [4])	impedance response for bovine aortic endothelial cells [5]
NC(=O)CCc1cc(-n2cccc2)ccc1-c1cccc(O)c1 [Compound P9, 3-(3′-Hydroxy-4-(1H-pyrrol-1-yl)-[1,1′-biphenyl]-2-yl)propanamide]	Negative impedance responses	decreased	decreased	normal tissue architecture has been restored	decreased	Negative impedance responses
Cc1cscc1-c1ccc(-c2cccc(O)c2)c(CCC(N)=O)c1 [Compound P44, 3-[3′-Hydroxy-4-(4-methylthiophen-3-yl)biphenyl-2-yl]propanamide]		decreased				Negative impedance responses
Cn1nccc1-c1ccc(-c2cccc(O)c2)c(CCC(N)=O)c1 [Compound P38, 3-[3′-Hydroxy-4-(1-methyl-1H-pyrazol-5-yl)biphenyl-2-yl]propanamide]		decreased				Negative impedance responses
NC(=O)CCc1cc(-c2ccc(F)cc2)ccc1-c1cccc(O)c1 [Compound P3, 3-(4″-Fluoro-3-hydroxy-1,1′:4′,1″-terphenyl-2′-yl)propanamide]	Negative impedance responses	decreased				Negative impedance responses
COc1cccc(-c2ccc(-c3cccc(O)c3)c(CCC(N)=O)c2)c1 [Compound P50, 3-(3-Hydroxy-3″-methoxy-1,1′:4′,1″-terphenyl-2′-yl)propanamide]		decreased				Negative impedance responses
NC(=O)CCc1cc(-c2ccc(N)cc2)ccc1-c1cccc(O)c1 [Compound P49, 3-(4″-Amino-3-hydroxy-1,1′:4′,1″-terphenyl-2′-yl)propanamide]		decreased				Negative impedance responses
Cc1n[nH]c(C)c1-c1ccc(-c2cccc(O)c2)c(CCC(N)=O)c1 [Compound P42, 3-[4-(3,5-Dimethyl-1H-pyrazol-4-yl)-3′-hydroxybiphenyl-2-yl]propanamide]		decreased				Negative impedance responses
Cc1ccsc1-c1ccc(-c2cccc(O)c2)c(CCC(N)=O)c1 [Compound P43, 3-[3′-Hydroxy-4-(3-methylthiophen-2-yl)biphenyl-2-yl]propanamide]		decreased				Negative impedance responses
NC(=O)CCc1cc(-c2cccc(F)c2)ccc1-c1cccc(O)c1 [Compound P1, 3-(3″-Fluoro-3-hydroxy-1,1′:4′,1′-terphenyl-2′-yl)propanamide]		decreased				Negative impedance responses
NC(=O)CCc1cc(-c2ccoc2)ccc1-c1cccc(O)c1 [Compound P11, 3-(4-(Furan-3-yl)-3′-hydroxy-[1,1′-biphenyl]-2-yl)propanamide]	Negative impedance responses	decreased	decreased		decreased	Negative impedance responses
Cc1noc(C)c1-c1ccc(-c2cccc(O)c2)c(CCC(N)=O)c1 [Compound P41, 3-(4-(3,5-Dimethylisoxazol-4-yl)-3′-hydroxy-[1,1′-biphenyl]-2-yl)propanamide]		decreased				Negative impedance responses
Cc1cccc(-c2ccc(-c3cccc(O)c3)c(CCC(N)=O)c2)c1 [Compound P46, 3-(3-Hydroxy-3″-methyl-1,1′:4′,1″-terphenyl-2′-yl)propanamide]	Negative impedance responses	decreased				Negative impedance responses
NC(=O)CCc1cc(-c2ccncc2)ccc1-c1cccc(O)c1 [Compound P6, 3-[3′-Hydroxy-4-(pyridin-4-yl)biphenyl-2-yl]propanamide]		decreased				Negative impedance responses
Cc1n[nH]cc1-c1ccc(-c2cccc(O)c2)c(CCC(N)=O)c1 [Compound P45, 3-[3′-Hydroxy-4-(3-methyl-1H-pyrazol-4-yl)biphenyl-2-yl]propanamide]		decreased				
NC(=O)CCc1cc(-c2cccc(C(=O)O)c2)ccc1-c1cccc(O)c1 [Compound P47, 3′-(3-Amino-3-oxopropyl)-3″-hydroxy-1,1′:4′,1″-terphenyl-3-carboxylic Acid]						Negative impedance responses
NC(=O)CCc1cc(-c2cccc(O)c2)ccc1-c1cccc(O)c1 [Compound P48, 3-(3,3″-Dihydroxy-1,1′:4′,1″-terphenyl-2′-yl)propanamide]						Negative impedance responses
NC(=O)CCc1cc(-c2cc(F)cc(F)c2)ccc1-c1cccc(O)c1 [Compound P33, 3-(3″,5″-Difluoro-3-hydroxy-1,1′:4′,1″-terphenyl-2′-yl)propanamide]	Negative impedance responses	decreased				Negative impedance responses
NC(=O)CCc1cc(-c2ccccn2)ccc1-c1cccc(O)c1 [Compound P4, 3-[3′-Hydroxy-4-(pyridin-2-yl)biphenyl-2-yl]propanamide]		decreased				Negative impedance responses
